Tested on: adipocytes
Assay: Lypolysis Assay Kit (dual glycerol and free fatty acids detection), adipocyte lipolytic activity
Assay type: cell-based
Details: forskolin 25, 2.5, 0.25 micromolar; conjugated linoleic acid 10, 1, 0.1 micromolar; 5 hours at 37° C.; optical density at 540 nanometers
Method: Suitable lipolytic agents may be identified by conducting a simple test using a lipolysis assay kit purchased from Zen-Bio. One suitable kit is the Lypolysis Assay Kit (dual glycerol and free fatty acids detection, reagents+cells) purchased from Zen-Bio (www.zen-bio.com) under catalog no. LIP-3.
The adipocyte lipolytic activity of ingredients was tested using Lypolysis Assay Kit (dual glycerol and free fatty acids detection, reagents+cells) purchased from Zen-Bio (www.zen-bio.com) under catalog no. LIP-3. Serial dilutions of forskolin and conjugated linoleic acid were prepared in Krebs-Ringer Buffer containing 1% by weight free fatty acid bovine serum albumin. Culture medium was removed from the plate wells and the cells were washed with phosphate buffered saline. The forskolin test material was added to the test wells to provide wells having a total concentration of 25, 2.5, and 0.25 micromolar. The conjugated linoleic acid test material was added to the test wells to provide concentrations of 10, 1, and 0.1 micromolar. The plate was incubated for 5 hours at 37° C. Fifty microliters of test material was removed from each plate and transferred to clean wells. Triglyceride breakdown was tested by measuring for the presence of glycerol or NEFA (non-esterified fatty acids). […] The optical density of each well of the glycerol and NEFA plate wells was measured at 540 nanometers.

## conjugated linoleic acid
  adipocyte lipolytic activity (triglyceride breakdown, glycerol or NEFA): effective in increasing lipolysis of adipocytes

Source: patent US20110268688A1, “METHOD AND COMPOSITIONS FOR IMPROVING SKIN AND BODY APPEARANCE” (priority 2008, published 2011)
